The source made the active and inactive calls.

Holding throughout (format): functional
For experiment [1], the target named is T1, Sentrin-specific protease 8 (Homo sapiens, UniProt Q96LD8).
T1 sequence (Q96LD8 whole entry): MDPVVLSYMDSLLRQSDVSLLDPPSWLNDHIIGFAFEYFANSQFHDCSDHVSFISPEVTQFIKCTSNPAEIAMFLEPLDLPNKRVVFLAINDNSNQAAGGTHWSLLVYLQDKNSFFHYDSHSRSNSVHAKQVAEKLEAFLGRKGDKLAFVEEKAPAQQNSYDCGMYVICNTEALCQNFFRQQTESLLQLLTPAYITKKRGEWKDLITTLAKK
Nature of the experiment: SENP8 protease inhibitors, SAR follow-up, biochemical, luminescence, set 2 (AID 588601).

For experiment [2], the target named is T2, Sentrin-specific protease 6 (Homo sapiens, UniProt Q9GZR1).
T2 sequence (Q9GZR1 whole entry): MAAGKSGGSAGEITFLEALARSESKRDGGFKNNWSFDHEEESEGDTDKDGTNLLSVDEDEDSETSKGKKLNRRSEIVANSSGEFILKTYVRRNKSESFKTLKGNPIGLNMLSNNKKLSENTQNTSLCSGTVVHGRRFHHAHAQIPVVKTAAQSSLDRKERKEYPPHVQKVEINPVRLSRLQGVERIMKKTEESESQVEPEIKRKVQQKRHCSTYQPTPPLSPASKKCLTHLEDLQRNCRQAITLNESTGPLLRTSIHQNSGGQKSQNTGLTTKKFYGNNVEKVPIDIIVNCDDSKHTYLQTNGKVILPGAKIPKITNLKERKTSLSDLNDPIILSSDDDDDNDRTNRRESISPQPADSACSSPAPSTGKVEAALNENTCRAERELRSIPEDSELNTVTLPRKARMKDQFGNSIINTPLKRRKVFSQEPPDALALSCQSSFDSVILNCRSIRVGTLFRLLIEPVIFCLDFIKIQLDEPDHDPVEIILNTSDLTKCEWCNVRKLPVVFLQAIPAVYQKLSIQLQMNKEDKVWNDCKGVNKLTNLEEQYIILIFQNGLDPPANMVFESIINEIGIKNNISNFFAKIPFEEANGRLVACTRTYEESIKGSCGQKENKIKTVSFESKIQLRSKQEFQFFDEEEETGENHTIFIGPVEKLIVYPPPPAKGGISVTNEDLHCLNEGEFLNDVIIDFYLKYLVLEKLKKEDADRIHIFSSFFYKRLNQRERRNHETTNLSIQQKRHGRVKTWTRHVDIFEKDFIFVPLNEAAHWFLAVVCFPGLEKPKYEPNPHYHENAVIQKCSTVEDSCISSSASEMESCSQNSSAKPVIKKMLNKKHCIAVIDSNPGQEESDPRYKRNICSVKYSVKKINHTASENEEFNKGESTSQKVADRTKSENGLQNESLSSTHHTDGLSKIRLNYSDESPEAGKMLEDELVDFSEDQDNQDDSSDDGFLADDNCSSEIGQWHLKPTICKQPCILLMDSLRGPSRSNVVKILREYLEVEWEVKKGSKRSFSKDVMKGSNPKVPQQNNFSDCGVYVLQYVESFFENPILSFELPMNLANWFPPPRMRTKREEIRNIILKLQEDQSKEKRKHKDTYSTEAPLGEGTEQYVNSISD
Nature of the experiment: SENP6 protease inhibitors, SAR follow-up, biochemical, luminescence, set 2 (AID 588598).

The target of a further experiment is T3, Caspase-3 (Homo sapiens, UniProt P42574).
T3 sequence (P42574 whole entry): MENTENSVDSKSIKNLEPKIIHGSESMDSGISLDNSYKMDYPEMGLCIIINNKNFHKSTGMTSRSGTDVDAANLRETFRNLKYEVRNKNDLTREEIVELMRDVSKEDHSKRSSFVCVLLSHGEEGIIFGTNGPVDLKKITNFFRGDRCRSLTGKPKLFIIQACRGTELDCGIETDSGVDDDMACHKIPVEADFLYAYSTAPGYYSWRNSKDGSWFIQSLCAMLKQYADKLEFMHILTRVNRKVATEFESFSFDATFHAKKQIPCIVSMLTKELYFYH
Nature of the experiment: caspase-3 inhibitors as off-family protease, SAR follow-up, selectivity assay for SENP protease inhibitor project, biochemical, luminescence, set 2 (AID 588599).

The target of experiment [3] is T4, Sentrin-specific protease 7 (Homo sapiens, UniProt Q9BQF6).
T4 sequence (Q9BQF6 whole entry): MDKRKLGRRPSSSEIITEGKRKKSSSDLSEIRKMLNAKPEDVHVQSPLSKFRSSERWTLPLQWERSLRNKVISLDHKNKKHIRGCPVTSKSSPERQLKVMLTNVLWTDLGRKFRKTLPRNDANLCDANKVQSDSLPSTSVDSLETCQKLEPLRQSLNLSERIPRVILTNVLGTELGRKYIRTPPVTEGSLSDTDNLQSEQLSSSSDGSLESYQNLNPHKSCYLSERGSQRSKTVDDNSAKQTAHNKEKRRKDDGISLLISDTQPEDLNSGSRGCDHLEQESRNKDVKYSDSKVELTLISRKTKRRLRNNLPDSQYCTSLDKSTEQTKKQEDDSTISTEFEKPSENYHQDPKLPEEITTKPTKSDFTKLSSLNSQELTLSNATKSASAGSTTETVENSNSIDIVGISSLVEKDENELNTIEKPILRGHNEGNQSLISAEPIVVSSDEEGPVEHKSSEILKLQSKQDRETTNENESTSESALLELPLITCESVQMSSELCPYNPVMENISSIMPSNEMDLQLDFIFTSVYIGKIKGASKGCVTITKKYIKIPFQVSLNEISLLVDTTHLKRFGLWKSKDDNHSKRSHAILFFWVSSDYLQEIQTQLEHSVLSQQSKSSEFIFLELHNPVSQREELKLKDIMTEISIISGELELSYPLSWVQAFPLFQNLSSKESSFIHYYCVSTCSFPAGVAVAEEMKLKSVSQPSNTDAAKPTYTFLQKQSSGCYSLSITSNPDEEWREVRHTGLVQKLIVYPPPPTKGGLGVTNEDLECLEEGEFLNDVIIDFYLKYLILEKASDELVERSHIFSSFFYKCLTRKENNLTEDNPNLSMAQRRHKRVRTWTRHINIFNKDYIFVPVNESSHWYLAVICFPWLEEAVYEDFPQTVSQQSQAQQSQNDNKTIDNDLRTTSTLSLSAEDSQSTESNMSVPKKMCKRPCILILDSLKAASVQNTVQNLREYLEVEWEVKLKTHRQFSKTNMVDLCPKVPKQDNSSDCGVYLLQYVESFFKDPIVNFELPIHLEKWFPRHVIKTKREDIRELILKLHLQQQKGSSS
Nature of the experiment: SENP7 protease inhibitors, SAR follow-up, biochemical, luminescence, set 2 (AID 588600).

The target of experiment [4] is T5, Orexin/Hypocretin receptor type 1 (Homo sapiens, UniProt O43613).
T5 sequence (O43613 whole entry): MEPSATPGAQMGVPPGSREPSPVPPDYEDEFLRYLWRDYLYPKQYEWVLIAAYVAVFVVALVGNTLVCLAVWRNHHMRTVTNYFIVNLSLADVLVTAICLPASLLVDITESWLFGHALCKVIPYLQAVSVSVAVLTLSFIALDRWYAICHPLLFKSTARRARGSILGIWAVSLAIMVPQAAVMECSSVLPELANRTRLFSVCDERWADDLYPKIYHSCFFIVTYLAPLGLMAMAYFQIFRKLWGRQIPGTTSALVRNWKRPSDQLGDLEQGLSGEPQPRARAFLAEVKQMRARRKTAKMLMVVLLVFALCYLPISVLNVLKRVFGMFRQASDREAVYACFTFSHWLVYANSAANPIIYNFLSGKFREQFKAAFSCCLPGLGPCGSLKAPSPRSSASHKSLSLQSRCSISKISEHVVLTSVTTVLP
Nature of the experiment: Fluorescence-based cell-based high throughput dose response assay for antagonists of the orexin 1 receptor (OX1R; HCRTR1). [Related pubchem assays (depositor defined):AID434989, AID435008, AID463079, AID485270, AID492963, AID492964, AID492965, AID493232, AID504717, AID504718].

Experiment [5] deals with T6, Orexin receptor type 2 (Homo sapiens, UniProt O43614).
T6 sequence (O43614 whole entry): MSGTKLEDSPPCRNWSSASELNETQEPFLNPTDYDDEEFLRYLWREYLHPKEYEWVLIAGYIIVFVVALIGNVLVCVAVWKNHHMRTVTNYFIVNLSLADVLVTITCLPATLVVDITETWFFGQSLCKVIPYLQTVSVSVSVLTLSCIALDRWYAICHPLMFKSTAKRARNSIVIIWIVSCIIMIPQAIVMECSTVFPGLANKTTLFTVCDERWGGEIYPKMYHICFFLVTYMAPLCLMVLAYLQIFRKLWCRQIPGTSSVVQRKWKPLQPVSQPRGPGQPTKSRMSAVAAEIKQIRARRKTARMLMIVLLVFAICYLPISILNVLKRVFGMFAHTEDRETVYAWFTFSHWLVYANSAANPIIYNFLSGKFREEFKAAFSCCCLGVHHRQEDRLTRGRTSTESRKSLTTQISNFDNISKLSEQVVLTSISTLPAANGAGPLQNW
Nature of the experiment: Counterscreen assay for antagonists of the orexin 1 receptor (OX1R; HCRTR1): Homogeneous Time Resolved Fluorescence (HTRF)-based cell-based dose response assay for antagonists of the orexin 2 receptor (OX2R; HCRTR2), run by assay provider. For orientation: The purpose of a counterscreen is to sort out artefacts and off-target activity.

Experiment [6] is described as follows: Counterscreen for antagonists of the orexin 1 receptor (OX1R; HCRTR1): Fluorescence-based cell-based high throughput dose response assay to identify antagonists of the parental CHO cell line. [Related pubchem assays (depositor defined):AID434989, AID435008, AID463079, AID485270, AID492963, AID492964, AID492965, AID493232, AID504699, AID504701].
In experiment [7] the target is T6, Orexin receptor type 2. Nature of the experiment: Counterscreen assay for antagonists of the orexin 1 receptor (OX1R; HCRTR1): Fluorescence-based cell-based dose response assay for antagonists of the orexin 2 receptor (OX2R; HCRTR2), run by assay provider.
A further experiment has as its system CHO-K1. Nature of the experiment: Counterscreen for antagonists of the orexin 1 receptor (OX1R; HCRTR1): Homogeneous time resolved fluorescence (HTRF)-based cell-based dose response assay to identify antagonists of the parental CHO-K1 cell line. [Related pubchem assays (depositor defined):AID434989, AID435008, AID463079, AID485270, AID492963, AID492964, AID492965, AID493232, AID504699, AID504701]. To be noted: Cricetulus griseus.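 Note: potency for inhibition of ATP-stimulated IP1 production as antagonists.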

Experiment [8] concerns the target T5, Orexin/Hypocretin receptor type 1. Nature of the experiment: Homogeneous Time Resolved Fluorescence (HTRF)-based cell-based high throughput dose response assay for antagonists of the orexin 1 receptor (OX1R; HCRTR1). [Related pubchem assays (depositor defined):AID434989, AID435008, AID463079, AID485270, AID492963, AID492964, AID492965, AID493232, AID504717, AID504718]. Background: In TR-FRET formats the signal depends on donor and acceptor labels being close together.

As usually defined, the IC50 is the midpoint of a concentration-inhibition curve. As to `CCOc1cccc2sc(NC(=O)c3ccc(C#N)cc3)nc12`, the IC50 (in experiment [1]; in experiment [2]; on Caspase-3; in experiment [3]) was > 99 µM (inactive) each time.

With `CCOC(=O)C1=C(COC(=O)/C=C/c2cccc(OC)c2)NC(=O)NC1C` (stereo not given), the IC50 in experiment [4] was 15.3 µM (inactive); at Orexin receptor type 2 [5], > 50 µM (inactive); in experiment [6] it was > 49.8 µM (inactive); on Orexin receptor type 2 [7], > 88.8 µM (inactive); with CHO-K1 it was > 66.2 µM (inactive); in [8], 8.33 µM (active).

Turning to `CCSC1=C(C#N)C(c2ccccc2Cl)C(C(=O)c2cccs2)C(O)(C(F)(F)F)N1` (stereo not given), the IC50 in experiment [4] was 0.878 µM (active); on Orexin receptor type 2 [5], > 50 µM (inactive); in experiment [6], 33.9 µM (inactive); at Orexin receptor type 2 [7], 20 µM (inactive); with CHO-K1 it was > 66.2 µM (inactive); in [8], 0.174 µM (active).

As to `CN(C(=O)C(=O)c1c[nH]c2ccccc12)C1CCCCC1`, the IC50 (in experiment [1]; in [2]; on Caspase-3; in experiment [3]) was > 99 µM (inactive) each time.

The record behind these values is ChEMBL document CHEMBL1201862, “PubChem BioAssay data set” (2004).
